Results as given in ChEMBL document CHEMBL1201861, “Genomics of Drug Sensitity in Cancer screening data, Wellcome Trust Sanger Institute”.

Experiments:
Assay in all cases: cells
Details in all cases: Homo sapiens
DEL = format: functional, cell-based
Description: SANGER: Inhibition of human DEL cell growth in a cell viability assay.

DMS-114 = format: functional, cell-based
DOHH-2 = format: functional, cell-based
Description: SANGER: Inhibition of human DOHH-2 cell growth in a cell viability assay.

EKVX = format: functional, cell-based
Description: SANGER: Inhibition of human EKVX cell growth in a cell viability assay.

ES4 = format: functional, cell-based
Description: SANGER: Inhibition of human ES4 cell growth in a cell viability assay.

EW-1 = format: functional, cell-based
Description: SANGER: Inhibition of human EW-1 cell growth in a cell viability assay.

EW-13 = format: functional, cell-based
Description: SANGER: Inhibition of human EW-13 cell growth in a cell viability assay.

EW-16 = format: functional, cell-based
Description: SANGER: Inhibition of human EW-16 cell growth in a cell viability assay.

EW-18 = format: functional, cell-based
Description: SANGER: Inhibition of human EW-18 cell growth in a cell viability assay.

GI-1 = format: functional, cell-based
Description: SANGER: Inhibition of human GI-1 cell growth in a cell viability assay.

GI-ME-N = format: functional, cell-based
Description: SANGER: Inhibition of human GI-ME-N cell growth in a cell viability assay.

HCC1187 = format: functional, cell-based
Description: SANGER: Inhibition of human HCC1187 cell growth in a cell viability assay.

HDLM-2 = format: functional, cell-based
Description: SANGER: Inhibition of human HDLM-2 cell growth in a cell viability assay.

HL-60 = format: functional, cell-based
Description: SANGER: Inhibition of human HL-60 cell growth in a cell viability assay.

HT-144 = format: functional, cell-based
Description: SANGER: Inhibition of human HT-144 cell growth in a cell viability assay.

IA-LM = format: functional, cell-based
Description: SANGER: Inhibition of human IA-LM cell growth in a cell viability assay.

JVM-3 = format: functional, cell-based
Description: SANGER: Inhibition of human JVM-3 cell growth in a cell viability assay.

KARPAS-45 = format: functional, cell-based
Description: SANGER: Inhibition of human KARPAS-45 cell growth in a cell viability assay.

KLE = format: functional, cell-based
Description: SANGER: Inhibition of human KLE cell growth in a cell viability assay.

KMOE-2 = format: functional, cell-based
Description: SANGER: Inhibition of human KMOE-2 cell growth in a cell viability assay.

KP-N-YS = format: functional, cell-based
Description: SANGER: Inhibition of human KP-N-YS cell growth in a cell viability assay.

L-363 = format: functional, cell-based
Description: SANGER: Inhibition of human L-363 cell growth in a cell viability assay.

L-428 = format: functional, cell-based
Description: SANGER: Inhibition of human L-428 cell growth in a cell viability assay.

LAMA-84 = format: functional, cell-based
Description: SANGER: Inhibition of human LAMA-84 cell growth in a cell viability assay.

LU-134-A = format: functional, cell-based
Description: SANGER: Inhibition of human LU-134-A cell growth in a cell viability assay.

MC116 = format: functional, cell-based
Description: SANGER: Inhibition of human MC116 cell growth in a cell viability assay.

MEG-01 = format: functional, cell-based
Description: SANGER: Inhibition of human MEG-01 cell growth in a cell viability assay.

MHH-NB-11 = format: functional, cell-based
Description: SANGER: Inhibition of human MHH-NB-11 cell growth in a cell viability assay.

MMAC-SF = format: functional, cell-based
Description: SANGER: Inhibition of human MMAC-SF cell growth in a cell viability assay.

MOLT-16 = format: functional, cell-based
Description: SANGER: Inhibition of human MOLT-16 cell growth in a cell viability assay.

MZ1-PC = format: functional, cell-based
Description: SANGER: Inhibition of human MZ1-PC cell growth in a cell viability assay.

MZ2-MEL = format: functional, cell-based
Description: SANGER: Inhibition of human MZ2-MEL cell growth in a cell viability assay.

MZ7-mel = format: functional, cell-based
Description: SANGER: Inhibition of human MZ7-mel cell growth in a cell viability assay.

Mo = format: functional, cell-based
Description: SANGER: Inhibition of human Mo-T cell growth in a cell viability assay.

NB10 = format: functional, cell-based
Description: SANGER: Inhibition of human NB10 cell growth in a cell viability assay.

NB69 = format: functional, cell-based
Description: SANGER: Inhibition of human NB69 cell growth in a cell viability assay.

NCI-H1304 = format: functional, cell-based
Description: SANGER: Inhibition of human NCI-H1304 cell growth in a cell viability assay.

NCI-H1395 = format: functional, cell-based
Description: SANGER: Inhibition of human NCI-H1395 cell growth in a cell viability assay.

NCI-H1581 = format: functional, cell-based
Description: SANGER: Inhibition of human NCI-H1581 cell growth in a cell viability assay.

NCI-H209 = format: functional, cell-based
Description: SANGER: Inhibition of human NCI-H209 cell growth in a cell viability assay.

NCI-H526 = format: functional, cell-based
Description: SANGER: Inhibition of human NCI-H526 cell growth in a cell viability assay.

NCI-H747 = format: functional, cell-based
Description: SANGER: Inhibition of human NCI-H747 cell growth in a cell viability assay.

SNU-5 = format: functional, cell-based
Description: SANGER: Inhibition of human NCI-SNU-5 cell growth in a cell viability assay.

NH-12 = format: functional, cell-based
Description: SANGER: Inhibition of human NH-12 cell growth in a cell viability assay.

ONS-76 = format: functional, cell-based
Description: SANGER: Inhibition of human ONS-76 cell growth in a cell viability assay.

OVCAR-4 = format: functional, cell-based
Description: SANGER: Inhibition of human OVCAR-4 cell growth in a cell viability assay.

RKO = format: functional, cell-based
Description: SANGER: Inhibition of human RKO cell growth in a cell viability assay.

Ramos-2G6-4C10 = format: functional, cell-based
Description: SANGER: Inhibition of human Ramos-2G6-4C10 cell growth in a cell viability assay.

SF-539 = format: functional, cell-based
Description: SANGER: Inhibition of human SF539 cell growth in a cell viability assay.

SJSA-1 = format: functional, cell-based
Description: SANGER: Inhibition of human SJSA-1 cell growth in a cell viability assay.

SK-MEL-1 = format: functional, cell-based
Description: SANGER: Inhibition of human SK-MEL-1 cell growth in a cell viability assay.

SK-N-FI = format: functional, cell-based
Description: SANGER: Inhibition of human SK-N-FI cell growth in a cell viability assay.

SK-NEP-1 = format: functional, cell-based
Description: SANGER: Inhibition of human SK-NEP-1 cell growth in a cell viability assay.

SK-PN-DW = format: functional, cell-based
Description: SANGER: Inhibition of human SK-PN-DW cell growth in a cell viability assay.

A101D = format: functional, cell-based
Description: SANGER: Inhibition of human A101D cell growth in a cell viability assay.

A388 = format: functional, cell-based
Description: SANGER: Inhibition of human A388 cell growth in a cell viability assay.

ATN-1 = format: functional, cell-based
Description: SANGER: Inhibition of human ATN-1 cell growth in a cell viability assay.

BB30-HNC = format: functional, cell-based
Description: SANGER: Inhibition of human BB30-HNC cell growth in a cell viability assay.

Becker = format: functional, cell-based
Description: SANGER: Inhibition of human Becker cell growth in a cell viability assay.

TE-10 = format: functional, cell-based
Description: SANGER: Inhibition of human TE-10 cell growth in a cell viability assay.

TE-6 = format: functional, cell-based
Description: SANGER: Inhibition of human TE-6 cell growth in a cell viability assay.

TGBC24TKB = format: functional, cell-based
Description: SANGER: Inhibition of human TGBC24TKB cell growth in a cell viability assay.

U-87 MG = format: functional, cell-based, U-87MG ATCC
Description: SANGER: Inhibition of human U-87-MG cell growth in a cell viability assay.

UACC-257 = format: functional, cell-based
Description: SANGER: Inhibition of human UACC-257 cell growth in a cell viability assay.

CAS-1 = format: functional, cell-based
Description: SANGER: Inhibition of human CAS-1 cell growth in a cell viability assay.

COLO-320-HSR = format: functional, cell-based
Description: SANGER: Inhibition of human COLO-320-HSR cell growth in a cell viability assay.

## O=c1[nH]c2ccccc2n1C1CCN(Cc2ccc(-c3nc4cc5[nH]cnc5cc4nc3-c3ccccc3)cc2)CC1
DEL
  IC50: > 2.56 µM
DMS-114
  IC50: > 2.56 µM
DOHH-2
  IC50: > 2.56 µM
EKVX
  IC50: > 2.56 µM
ES4
  IC50: > 2.56 µM
EW-1
  IC50: > 2.56 µM
EW-13
  IC50: > 2.56 µM
EW-16
  IC50: > 2.56 µM
EW-18
  IC50: > 2.56 µM
GI-1
  IC50: > 2.56 µM
GI-ME-N
  IC50: > 2.56 µM
HCC1187
  IC50: > 2.56 µM
HDLM-2
  IC50: > 2.56 µM
HL-60
  IC50: > 2.56 µM
HT-144
  IC50: > 2.56 µM
IA-LM
  IC50: > 2.56 µM
JVM-3
  IC50: > 2.56 µM
KARPAS-45
  IC50: > 2.56 µM
KLE
  IC50: > 2.56 µM
KMOE-2
  IC50: > 2.56 µM
KP-N-YS
  IC50: > 2.56 µM
L-363
  IC50: > 2.56 µM
L-428
  IC50: > 2.56 µM
LAMA-84
  IC50: > 2.56 µM
LU-134-A
  IC50: > 2.56 µM
MC116
  IC50: > 2.56 µM
MEG-01
  IC50: > 2.56 µM
MHH-NB-11
  IC50: > 2.56 µM
MMAC-SF
  IC50: > 2.56 µM
MOLT-16
  IC50: > 2.56 µM
MZ1-PC
  IC50: > 2.56 µM
MZ2-MEL
  IC50: > 2.56 µM
MZ7-mel
  IC50: > 2.56 µM
Mo
  IC50: > 2.56 µM
NB10
  IC50: > 2.56 µM
NB69
  IC50: > 2.56 µM
NCI-H1304
  IC50: > 2.56 µM
NCI-H1395
  IC50: > 2.56 µM
NCI-H1581
  IC50: > 2.56 µM
NCI-H209
  IC50: > 2.56 µM
NCI-H526
  IC50: > 2.56 µM
NCI-H747
  IC50: > 2.56 µM
SNU-5
  IC50: > 2.56 µM
NH-12
  IC50: 0.609 µM
ONS-76
  IC50: > 2.56 µM
OVCAR-4
  IC50: > 2.56 µM
RKO
  IC50: > 2.56 µM
Ramos-2G6-4C10
  IC50: > 2.56 µM
SF-539
  IC50: > 2.56 µM
SJSA-1
  IC50: > 2.56 µM
SK-MEL-1
  IC50: > 2.56 µM
SK-N-FI
  IC50: > 2.56 µM
SK-NEP-1
  IC50: > 2.56 µM
SK-PN-DW
  IC50: > 2.56 µM
A101D
  IC50: > 2.56 µM
A388
  IC50: > 2.56 µM
ATN-1
  IC50: > 2.56 µM
BB30-HNC
  IC50: > 2.56 µM
Becker
  IC50: > 2.56 µM
TE-10
  IC50: > 2.56 µM
TE-6
  IC50: > 2.56 µM
TGBC24TKB
  IC50: > 2.56 µM
U-87 MG
  IC50: > 2.56 µM
UACC-257
  IC50: > 2.56 µM
CAS-1
  IC50: > 2.56 µM
COLO-320-HSR
  IC50: > 2.56 µM

## Fc1cc(-c2cc[nH]/c(=N/c3ccc(-n4cnc(N5CCOCC5)n4)cc3)n2)cc(N2CCOCC2)c1
DEL
  IC50: 0.289 µM
DMS-114
  IC50: > 5.12 µM
DOHH-2
  IC50: 0.715 µM
EKVX
  IC50: 2.84 µM
ES4
  IC50: 1.39 µM
EW-1
  IC50: 0.546 µM
EW-13
  IC50: 0.297 µM
EW-16
  IC50: 0.451 µM
EW-18
  IC50: 0.857 µM
GI-1
  IC50: 0.171 µM
GI-ME-N
  IC50: 1.44 µM
HCC1187
  IC50: 0.594 µM
HDLM-2
  IC50: 0.721 µM
HL-60
  IC50: 0.546 µM
HT-144
  IC50: 0.147 µM
IA-LM
  IC50: 0.371 µM
JVM-3
  IC50: > 5.12 µM
KARPAS-45
  IC50: 0.795 µM
KLE
  IC50: 1.81 µM
KMOE-2
  IC50: 1.07 µM
KP-N-YS
  IC50: 0.695 µM
L-363
  IC50: 0.445 µM
L-428
  IC50: 0.649 µM
LAMA-84
  IC50: 2.95 µM
LU-134-A
  IC50: 0.594 µM
MC116
  IC50: 0.411 µM
MEG-01
  IC50: 0.684 µM
MHH-NB-11
  IC50: 0.936 µM
MMAC-SF
  IC50: 2.48 µM
MOLT-16
  IC50: 0.733 µM
MZ1-PC
  IC50: 0.195 µM
MZ2-MEL
  IC50: 0.41 µM
MZ7-mel
  IC50: 2.9 µM
Mo
  IC50: 1.65 µM
NB10
  IC50: 1.3 µM
NB69
  IC50: 1.43 µM
NCI-H1304
  IC50: 1.43 µM
NCI-H1395
  IC50: > 5.12 µM
NCI-H1581
  IC50: 1.34 µM
NCI-H209
  IC50: 1.26 µM
NCI-H526
  IC50: 0.957 µM
NCI-H747
  IC50: 1.05 µM
SNU-5
  IC50: > 5.12 µM
NH-12
  IC50: 0.465 µM
ONS-76
  IC50: 0.396 µM
OVCAR-4
  IC50: 0.467 µM
RKO
  IC50: 0.117 µM
Ramos-2G6-4C10
  IC50: 0.393 µM
SF-539
  IC50: 0.673 µM
SJSA-1
  IC50: 0.251 µM
SK-MEL-1
  IC50: 1.33 µM
SK-N-FI
  IC50: > 5.12 µM
SK-NEP-1
  IC50: 0.55 µM
SK-PN-DW
  IC50: 0.669 µM
A101D
  IC50: 0.245 µM
A388
  IC50: 1.94 µM
ATN-1
  IC50: 0.505 µM
BB30-HNC
  IC50: 0.122 µM
Becker
  IC50: 1.06 µM
TE-10
  IC50: 0.305 µM
TE-6
  IC50: 2 µM
TGBC24TKB
  IC50: 1.04 µM
U-87 MG
  IC50: 2.73 µM
UACC-257
  IC50: 1.24 µM
CAS-1
  IC50: 2.23 µM
COLO-320-HSR
  IC50: 0.518 µM
